Experimental data from ChEMBL document CHEMBL5137049, “Discovery of a Novel Small-Molecule Inhibitor Disrupting TRBP-Dicer Interaction against Hepatocellular Carcinoma via the Modulation of microRNA Biogenesis” (J Med Chem, 2022).
Activity calls are given as the source filed them. The rule behind the calls is not given here.

How the values were obtained:
HeLa [1] = assay: Downregulation of miR-155 expression in human HeLa cells at 10 uM incubated for 6 hrs by qRT-PCR analysis; type: functional
HeLa [2] = assay: Upregulation of pre-miR-21 in human HeLa cells at 10 uM incubated for 6 hrs by qRT-PCR analysis; type: functional, cell-based
HepG2 = assay: Upregulation of pri-miR-221 in human HepG2 cells at 10 uM incubated for 6 hrs by qRT-PCR analysis; type: functional, cell-based

`CCOC(=O)c1nc(-c2ccc(OC)cc2)oc1C` was tested, and the Activity (HeLa [1]) was 60%, the Activity (HeLa [2]) was “Active” and the Activity (HepG2) was “Active”.
